Several values for one entry are separate records, joined by “and”; a condition that tells them apart may be missing. Identical values can stand only once.
Key:
Assay type in all cases: cell-based, human
[1] = test system: matrix metallopeptidase 1 (MMP-1); assay: MMP-1 release in UVA-irradiated NHDF (ELISA); details: NHDF irradiated 15 J/cm^2 UVA, 10^−7M
Protocol: (§1) Tests were performed with normal human dermal fibroblast cultures at the 8th passage. Cells were grown in DMEM supplemented with glutamine at 2 mM, penicillin at 50 U/mL and streptomycin (50 μg/mL) and 10% of fetal calf serum (FCS) at 37° C. in a 5% CO2 atmosphere.
Human fibroblasts were cultured for 24 hours before the cells were pre-incubated with the test or reference compounds (dexamethasone) for another 24 hours. The medium was replaced by the irradiation medium (EBSS, CaCl2) 0.264 g/L, MgClSO4 0.2 g/L) containing the test compounds) and cells were irradiated with UVA (15 J/cm^2). The irradiation medium was replaced by culture medium including again the test compounds incubated for 48 hours. After incubation the quantity of matrix metallopeptidase 1 (MMP-1) in the culture supernatant was measured using an ELISA kit.

PGE2 = assay: Anti-inflammatory potential: secreted PGE2 in stimulated NHEK (ELISA); details: PMA - 1 μg/ml, reference at 10^−6M, cytokine type not given
Protocol: NHEK were pre-incubated for 24 h with the test compounds. The medium was replaced with the NHEK culture medium containing the inflammatory inducers (PMA or Poly I:C) and incubated for another 24 hours. Positive and negative controls ran in parallel. At the endpoint the culture supernatants were quantified of secreted IL-8, PGE2 and TNF-α, by means of ELISA.

procollagen I = assay: Stimulation of procollagen I synthesis in NHDF (ELISA); details: 72 hours, 20 μg/ml
Protocol: as §1
(§2) Fibroblasts were cultured for 24 hours before the cells were incubated with the test compounds for further 72 hours. After the incubation the culture supernatants were collected in order to measure the released quantities of procollagen I, VEGF, and fibronectin by means of ELISA. Reference test compounds were vitamin C (procollagen I), PMA (VEGF), and TGF-β (fibronectin).

[2] = test system: hydrogen peroxide (DHR) in NHEK cells; assay: Protection against UV-induced H2O2 stress in NHEK (DHR probe, flow cytometry); details: 180 mJ/cm^2 UVB (2839 mJ/cm^2 UVA), 100 μM
Protocol: Pre-incubated NHEK were incubated with the test compound for 24 h. Then the specific fluorescence probe for the measurement of hydrogen peroxide (DHR) or lipid peroxides (C11-fluor) was added and incubated for 45 min. Irradiation occurred with in H2O2 determination UVB at 180 mJ/cm^2 (+UVA at 2839 mJ/cm^2) or UVB at 240 mJ/cm^2 (+UVA at 3538 mJ/cm^2) in lipid peroxide, respectively, using a SOL500 Sun Simulator lamp. After irradiation the cells were post-incubated for 30 min before flow-cytometry analysis.

VEGF = assay: Stimulation of VEGF release in NHDF (ELISA); details: 72 hours, 1 μg/ml
Protocol: as §1, §2

Compound: C[C@@H]1C[C@H]2[C@@H]3CCC4=CC(=O)C=C[C@]4(C)[C@@]3(F)[C@@H](O)C[C@]2(C)[C@@]1(O)C(=O)CO [Dexamethasone, reference compound]
- MMP-1 % Irradiated control [1]: 4%
- MMP-1 % Protection [1]: 150%
- MMP-1 (ng/ml), single replicates [1]: 2.5 ng/mL and 3.1 ng/mL and 3.2 ng/mL
- Mean MMP-1 [1]: 2.9 ng/mL
- % stim. control (PGE2): 92%
- Cytokine [pg/mL] Mean (PGE2): 1437 pg/mL
- Cytokine (PGE2; single values): 1318 pg/mL and 1556 pg/mL

Compound: O=C1O[C@H]([C@@H](O)CO)C(O)=C1O [Vitamin C]
- Procollagen I % Control (procollagen I): 316%
- Procollagen I % Stimulation (procollagen I): 216%
- Procollagen I Mean (procollagen I): 5272 ng/mL
- Procollagen I (procollagen I; single values): 4739 ng/mL and 5854 ng/mL and 5225 ng/mL

Compound: COc1ccc(O)c(C(C)(C)C)c1 [BHA]
- H2O2 % irradiated control [2]: 42%
- H2O2 (AU) Mean [2]: 776 AU
- H2O2 Protection % [2]: 70%
- H2O2 (AU) (DHR GMFI) ([2]; single values): 740 AU and 834 AU and 754 AU

Compound: CCCCCCCCCCCCCC(=O)O[C@@H]1[C@@H](C)[C@@]2(O)[C@@H](C=C(CO)C[C@]3(O)C(=O)C(C)=C[C@@H]23)[C@@H]2C(C)(C)[C@]12OC(C)=O [PMA]
- Mean VEGF (VEGF): 148 pg/mL
- VEGF % Control (VEGF): 205%
- VEGF % Stimulation (VEGF): 105%
- VEGF (VEGF; single values): 150 pg/mL and 143 pg/mL

— patent publication US20190203240A1, “METHODS FOR THE PRODUCTION OF RHAMNOSYLATED FLAVONOIDS” (Universitaet Hamburg, priority 2016, published 2019)
